Laboratory results: the OligoGym collection
Several values for one entry are separate records, joined by “and”; a condition that tells them apart may be missing. Identical values can stand only once. HELM strings list units from the 5' end as sugar, base in round brackets, then linkage (d deoxyribose, r ribose, m 2'-O-methyl, p phosphodiester). Methylation of C is not given here. [moe] = 2'-O-(2-methoxyethyl) (MOE); [cEt] = constrained ethyl (cEt); [sp] = phosphorothioate linkage

Target: HBV
Conditions: ASO, HepG2, 0.07 µM

## RNA1{[moe](G)[sp].[moe](T)[sp].d(T)[sp].d(C)[sp].d(C)[sp].d(G)[sp].d(C)[sp].d(A)[sp].d(G)[sp].d(T)[sp].d(A)[sp].[moe](T)[sp].[moe](G)[sp].[moe](G)[sp].[moe](A)[sp].[moe](T)}$$$$V2.0
  target mRNA inhibition: 56% and 55%

## RNA1{[moe](T)[sp].[cEt](A)[sp].d(T)[sp].d(G)[sp].d(C)[sp].d(C)[sp].d(T)[sp].d(A)[sp].d(C)[sp].d(A)[sp].d(G)[sp].d(C)[sp].[cEt](C)[sp].[moe](T)[sp].[cEt](C)[sp].[moe](C)}$$$$V2.0
  target mRNA inhibition: 54% and 51%

## RNA1{[moe](T)[sp].[cEt](C)[sp].[cEt](C)[sp].d(A)[sp].d(C)[sp].d(C)[sp].d(A)[sp].d(C)[sp].d(G)[sp].d(A)[sp].d(G)[sp].d(T)[sp].d(C)[sp].[cEt](T)[sp].[cEt](A)[sp].[moe](G)}$$$$V2.0
  target mRNA inhibition: 54% and 44%

## RNA1{[moe](T)[sp].[cEt](C)[sp].d(C)[sp].d(A)[sp].d(C)[sp].d(C)[sp].d(A)[sp].d(C)[sp].d(G)[sp].d(A)[sp].d(G)[sp].d(T)[sp].[cEt](C)[sp].[moe](T)[sp].[cEt](A)[sp].[moe](G)}$$$$V2.0
  target mRNA inhibition: 71% and 53%

## RNA1{[moe](T)[sp].[cEt](G)[sp].[cEt](A)[sp].d(G)[sp].d(G)[sp].d(C)[sp].d(C)[sp].d(C)[sp].d(A)[sp].d(C)[sp].d(T)[sp].d(C)[sp].d(C)[sp].[cEt](C)[sp].[cEt](A)[sp].[moe](T)}$$$$V2.0
  target mRNA inhibition: 56% and 80%

## RNA1{[moe](T)[sp].[cEt](G)[sp].d(A)[sp].d(A)[sp].d(G)[sp].d(C)[sp].d(G)[sp].d(A)[sp].d(A)[sp].d(G)[sp].d(T)[sp].d(G)[sp].[cEt](C)[sp].[moe](A)[sp].[cEt](C)[sp].[moe](A)}$$$$V2.0
  target mRNA inhibition: 76% and 71%

## RNA1{[moe](T)[sp].[cEt](T)[sp].d(A)[sp].d(T)[sp].d(G)[sp].d(C)[sp].d(C)[sp].d(T)[sp].d(A)[sp].d(C)[sp].d(A)[sp].d(G)[sp].[cEt](C)[sp].[moe](C)[sp].[cEt](T)[sp].[moe](C)}$$$$V2.0
  target mRNA inhibition: 50% and 56%

## RNA1{[moe](T)[sp].[cEt](T)[sp].d(C)[sp].d(C)[sp].d(G)[sp].d(C)[sp].d(A)[sp].d(G)[sp].d(T)[sp].d(A)[sp].d(T)[sp].d(G)[sp].[cEt](G)[sp].[moe](A)[sp].[cEt](T)[sp].[moe](C)}$$$$V2.0
  target mRNA inhibition: 50% and 39%

## RNA1{[moe](T)[sp].[cEt](T)[sp].d(T)[sp].d(A)[sp].d(T)[sp].d(G)[sp].d(C)[sp].d(C)[sp].d(T)[sp].d(A)[sp].d(C)[sp].d(A)[sp].[cEt](G)[sp].[moe](C)[sp].[cEt](C)[sp].[moe](T)}$$$$V2.0
  target mRNA inhibition: 8% and 1%

## RNA1{[moe](T)[sp].[moe](A)[sp].[moe](T)[sp].d(G)[sp].d(C)[sp].d(C)[sp].d(T)[sp].d(A)[sp].d(C)[sp].d(A)[sp].d(G)[sp].d(C)[sp].[moe](C)[sp].[moe](T)[sp].[moe](C)[sp].[moe](C)}$$$$V2.0
  target mRNA inhibition: 49% and 46%

## RNA1{[moe](T)[sp].[moe](C)[sp].[moe](C)[sp].[moe](G)[sp].[moe](C)[sp].d(A)[sp].d(G)[sp].d(T)[sp].d(A)[sp].d(T)[sp].d(G)[sp].d(G)[sp].d(A)[sp].d(T)[sp].[moe](C)[sp].[moe](G)}$$$$V2.0
  target mRNA inhibition: 75% and 59%

## RNA1{[moe](T)[sp].[moe](C)[sp].[moe](C)[sp].[moe](G)[sp].d(C)[sp].d(A)[sp].d(G)[sp].d(T)[sp].d(A)[sp].d(T)[sp].d(G)[sp].d(G)[sp].d(A)[sp].[moe](T)[sp].[moe](C)[sp].[moe](G)[sp].[moe](G)}$$$$V2.0
  target mRNA inhibition: 72% and 65%

## RNA1{[moe](T)[sp].[moe](C)[sp].d(C)[sp].d(G)[sp].d(C)[sp].d(A)[sp].d(G)[sp].d(T)[sp].d(A)[sp].d(T)[sp].d(G)[sp].[moe](G)[sp].[moe](A)[sp].[moe](T)[sp].[moe](C)[sp].[moe](G)[sp].[moe](G)}$$$$V2.0
  target mRNA inhibition: 74% and 70%
